Data from patent publication US20250051375A1, “ANTI-HIV COMPOUNDS” (Gilead Sciences, Inc., priority 2023, published 2025).
≈ marks a conversion by molar mass, not a printed value. Read-outs that look alike come from different tables or passages of the source.

Legend:
PBS Stability Assay = assay type: physicochemical; details: buffer, pH 7.4, 2 μM, phosphate buffered saline pH 7.4; read-out: PBS T½
Procedure, shortened: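 Test compound at 2 μM final was incubated in PBS, pH 7.4, and sampled at 0, 10, 20, 30, 60 and 120 min into acetonitrile/1% formic acid quench with labetalol internal standard. Remaining compound was quantified by LC-MS peak-area ratio, and half-life came from a first-order exponential fit.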

Solubility in FaSSIF = details: 23 °C, pH 6.5, fassif, thermodynamic from solid; for solubility: FaSSIF (pH 6.5) solubility, FaSSIF pH 6.5, dose 5 mg/mL, 2-hour incubation, ambient temperature
Procedure, shortened: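 Concentration measured by HPLC-UV after solid compound was dosed at 5 mg/mL into pH 6.5 fasted-state simulated intestinal fluid containing taurocholate and lecithin (4:1 molar) and vortexed.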

[1] = molecular target: bovine intestinal alkaline phosphatase (Bos taurus (Bovine), UniProt P19111); assay: BiALP: conversion by bovine intestinal alkaline phosphatase; assay type: in vitro ADME; details: 2 μM substrate, 100 ng/mL iALP, Tris pH 7.8, 37° C., 60 minutes; for [Intermediate A] or [Amprenavir]: parent formed
Sequence of bovine intestinal alkaline phosphatase (P19111 20-506): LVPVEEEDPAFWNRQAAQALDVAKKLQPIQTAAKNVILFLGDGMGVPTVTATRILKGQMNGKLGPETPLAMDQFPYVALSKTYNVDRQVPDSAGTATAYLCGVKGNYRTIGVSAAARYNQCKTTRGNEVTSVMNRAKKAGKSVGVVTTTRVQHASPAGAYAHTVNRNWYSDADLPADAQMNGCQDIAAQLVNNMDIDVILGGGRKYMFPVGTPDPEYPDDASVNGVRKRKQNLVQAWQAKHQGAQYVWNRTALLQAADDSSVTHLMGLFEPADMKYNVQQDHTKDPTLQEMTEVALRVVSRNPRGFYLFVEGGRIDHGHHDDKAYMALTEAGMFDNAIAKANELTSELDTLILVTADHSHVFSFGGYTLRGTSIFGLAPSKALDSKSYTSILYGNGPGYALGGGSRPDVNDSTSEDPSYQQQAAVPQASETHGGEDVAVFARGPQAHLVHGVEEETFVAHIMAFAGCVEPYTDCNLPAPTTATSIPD
Procedure, shortened: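 Compounds at 2 μM final were incubated 60 min at 37° C in 0.1 M Tris-HCl pH 7.8 with 1 mM MgCl2 and 1 mM ZnCl2, with or without 100 ng/mL iALP (0.01 units/mL). Samples were quenched with acetonitrile/formic acid containing labetalol. Conversion was quantified by LC-MS peak area ratios against a 2 μM product standard.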

HIV-1 IIIB strain = assay: MT-4 HIV Wild Type Virus Infection Assay (IIIB Virus); assay type: cell-based; details: Human immunodeficiency virus 1, IIIB, MT4, 120 h, MT-4 cells acutely infected with HIV-1 IIIB, 5 day incubation, Cell-titer glo
Procedure, shortened: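 MT-4 cells at 2×10^6 cells/ml in RPMI/10% FBS were acutely infected with HIV-1 IIIB for 1 h at 37° C, diluted 25× and added to serially diluted compounds. After 5 days at 37° C, viability read by CellTiter-Glo luminescence; EC50 from dose-response curves.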

Row | SMILES | half-life at 2 μM (PBS Stability Assay) [h] | solubility at 2 h (Solubility in FaSSIF) [µg/mL] | [Compound] [1] [nM] | EC50 (HIV-1 IIIB strain) [nM] | solubility (Solubility in FaSSIF) [µg/mL] | EC50 (HIV-1 IIIB strain; read-out: EC50) [nM] | biALP Intermediate A or [Amprenavir] (% of total) [1] | [Intermediate A] or [Amprenavir] [1] [nM]
1 | COC(=O)N[C@H](C(=O)N[C@@H](Cc1ccc(C#Cc2cnc(N3CC4CCC(C3)N4C3COC3)nc2)cc1)[C@H](CN(Cc1c(F)cc(-c2ccn(C(F)F)n2)cc1F)NC(=O)[C@@H](NC(=O)OC)C(C)(C)C(F)(F)F)OC(=O)CC(C)(C)c1c(CC(=O)N[C@H](CCC(=O)O)C(=O)O)cc(C)cc1OP(=O)(O)O)C(C)(C)C(F)(F)F [Example 92] | 5.95 | 3660 (≈ 2270 µM) | 1771.4 | 37.1 | – | – | – | –
2 | COC(=O)N[C@H](C(=O)N[C@@H](Cc1ccc(C#Cc2cnc(N3CC4CCC(C3)N4C3COC3)nc2)cc1)[C@H](CN(Cc1c(F)cc(-c2ccn(C(F)F)n2)cc1F)NC(=O)[C@@H](NC(=O)OC)C(C)(C)C(F)(F)F)OC(=O)CC(C)(C)c1c(CC(=O)NCCCC(=O)O)cc(C)cc1OP(=O)(O)O)C(C)(C)C(F)(F)F [Example 91] | 6.49 | < 1000 | 2153.3 | 60 | – | – | – | –
3 | COC(=O)N[C@H](C(=O)N[C@@H](Cc1ccc(C#Cc2cnc(N3CC4CCC(C3)N4C3COC3)nc2)cc1)[C@H](CN(Cc1c(F)cc(-c2ccn(C(F)F)n2)cc1F)NC(=O)[C@@H](NC(=O)OC)C(C)(C)C(F)(F)F)OC(=O)OCOC(=O)CC(C)(C)c1c(CC(=O)N2CC[C@H](C(=O)O)C2)cc(C)cc1OP(=O)(O)O)C(C)(C)C(F)(F)F [Example 75] | 4.77 | 4170 (≈ 2520 µM) | 1420.1 | 8.1 | – | – | – | –
4 | COC(=O)N[C@H](C(=O)N[C@@H](Cc1ccc(C#Cc2cnc(N3CC4CCC(C3)N4C3COC3)nc2)cc1)[C@H](CN(Cc1c(F)cc(-c2ccn(C(F)F)n2)cc1F)NC(=O)[C@@H](NC(=O)OC)C(C)(C)C(F)(F)F)OC(=O)OCOC(=O)CC(C)(C)c1c(C)cc(C(=O)O)cc1OP(=O)(O)O)C(C)(C)C(F)(F)F [Example 2] | 6.52 | – | 1359.6 | – | 680 (≈ 440 µM) | 2.1 | – | –
5 | COC(=O)N[C@H](C(=O)N[C@@H](Cc1ccc(C#Cc2cnc(N3CC4CCC(C3)N4C3COC3)nc2)cc1)[C@H](CN(Cc1c(F)cc(-c2ccn(C(F)F)n2)cc1F)NC(=O)[C@@H](NC(=O)OC)C(C)(C)C(F)(F)F)OC(=O)OCOC(=O)CC(C)(C)c1c(CC(=O)N[C@@H](CCC(=O)O)C(=O)O)cc(C)cc1OP(=O)(O)O)C(C)(C)C(F)(F)F [Example 70] | 5.27 | 5570 (≈ 3300 µM) | 1164.8 | 6.6 | – | – | – | –
6 | COC(=O)N[C@H](C(=O)N[C@@H](Cc1ccc(C#Cc2cnc(N3CC4CCC(C3)N4C3COC3)nc2)cc1)[C@H](CN(Cc1c(F)cc(-c2ccn(C(F)F)n2)cc1F)NC(=O)[C@@H](NC(=O)OC)C(C)(C)C(F)(F)F)OC(=O)OCOC(=O)CC(C)(C)c1c(CC(=O)NCC(=O)NS(C)(=O)=O)cc(C)cc1OP(=O)(O)O)C(C)(C)C(F)(F)F [Example 22] | 6.22 | 4720 (≈ 2790 µM) | 1221.6 | 9.9 | – | – | 54.6 % of total | 1468.7
7 | COC(=O)N[C@H](C(=O)N[C@@H](Cc1ccc(C#Cc2cnc(N3CC4CCC(C3)N4C3COC3)nc2)cc1)[C@H](CN(Cc1c(F)cc(-c2ccn(C(F)F)n2)cc1F)NC(=O)[C@@H](NC(=O)OC)C(C)(C)C(F)(F)F)OC(=O)CC(C)(C)c1c(CC(=O)Nc2ccc(S(=O)(=O)O)cc2)cc(C)cc1OP(=O)(O)O)C(C)(C)C(F)(F)F [Example 90] | 5.46 | 4240 (≈ 2590 µM) | 1746 | 101 | – | – | – | –
8 | COC(=O)N[C@H](C(=O)N[C@@H](Cc1ccc(C#Cc2cnc(N3CC4CCC(C3)N4C3COC3)nc2)cc1)[C@H](CN(Cc1c(F)cc(-c2ccn(C(F)F)n2)cc1F)NC(=O)[C@@H](NC(=O)OC)C(C)(C)C(F)(F)F)OC(=O)OCOC(=O)CC(C)(C)c1c(CC(=O)O)cc(C)cc1OP(=O)(O)O)C(C)(C)C(F)(F)F [Example 20] | 6.5 | – | 1351.2 | – | 220 (≈ 141 µM) | 0.7 | 48.6 % of total | 1276.2
